In publication PMC12010006, “Subnanomolar MAS-related G protein-coupled receptor-X2/B2 antagonists with efficacy in human mast cells and disease models” (Signal Transduction and Targeted Therapy, 2025):
“Also recorded” adds a separate entry of the source.

Key:
Type in all cases: cell-based
MRGPRX2 [1] = molecular target: T1, MRGPRX2 (Homo sapiens, UniProt Q96LB1); assay: Surface expression of CD107a and CD63 (flow cytometry), LAD2 cells activated with SP; settings: 30 nM, 5 min; SP 300 nM
T1 sequence (Q96LB1 1-330): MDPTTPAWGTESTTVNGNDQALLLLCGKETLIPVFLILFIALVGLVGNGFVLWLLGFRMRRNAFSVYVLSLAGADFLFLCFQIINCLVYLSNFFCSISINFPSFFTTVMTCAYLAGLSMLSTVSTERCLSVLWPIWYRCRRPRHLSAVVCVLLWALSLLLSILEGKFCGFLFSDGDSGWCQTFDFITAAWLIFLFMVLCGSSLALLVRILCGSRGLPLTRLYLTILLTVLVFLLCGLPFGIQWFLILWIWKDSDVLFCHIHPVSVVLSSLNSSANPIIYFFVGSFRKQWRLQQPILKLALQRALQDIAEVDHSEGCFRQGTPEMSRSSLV
Procedure: The granule-associated proteins CD107a and CD63 externalize in the process of degranulation. Their quantification by flow cytometry is a reliable marker of mast cell activation, which is often used for the diagnosis of allergies and anaphylaxis in mast cell activation tests.[49],[50] Thus, the expression of CD107a and CD63 on the cell surface was determined to confirm the effects of PSB-172656 on SP-induced MRGPRX2-mediated degranulation. […] In addition to MRPGRX2, LAD2 cells also express a GPCR that is specifically activated by the complement component C3a.[51] Both receptors can activate Gαi/o proteins to promote MC activation.[48],[52]
MC degranulation was also measured by determining the cell surface expression of CD107a (Lysosomal-Associated Membrane Protein-1, LAMP-1) and CD63 (LAMP-3) after agonist stimulation.[48] LAD2 cells were preincubated with PSB-172656 or vehicle control for 5 min at 37 °C, then activated with SP (0.3 μM) and or C3a (3 nM) for 5 min at 37 °C. After 5 min of incubation, cells were fixed with 500 µL of 4% fixation buffer (Biolegend, Catalog 420801) for 15 min at room temperature. […] Cell surface expression of CD107a and CD63 was measured from the zombie-yellow negative population by a BD LSR II flow cytometer (San Jose, CA, USA) and analyzed by FlowJo software version 10.7.2 (Tree Star Inc., Ashland, OR, USA).[48],[50]

MRGPRX2 [2] = molecular target: T1, MRGPRX2; assay: Ca2+ mobilization in LAD2 cells; settings: stimulation with clomipramine (16.0 µM), paroxetine (18.1 µM), desipramine (34.4 µM); listed as PSB-172656
From the text: PSB-172656 inhibited MRGPRX2-mediated Ca^2+ mobilization in LAD2 cells (see Supplementary Fig. S4).
Blocking of MRGPRX2 by the selective antagonist PSB-172656. […] Arrows indicate addition of stimulus; graphs represent means ± SEM of three independent experiments.

MRGPRX2 [3] = molecular target: T1, MRGPRX2; assay: TRUPATH Gαq dissociation assay, LN229 cells expressing MRGPRX2; parameters: expressed in transfected cells; host or cells: LN229 human glioblastoma cells; plasmid pLXSN-MRGPRX2 (Addgene #213960); settings: 100 nM, preincubation
Procedure: Fig. 3 Biological characterization of PSB-172656. a Selectivity of PSB-172656 (100 nM) for MRGPRX2 over MRGPRX1, MRGPRX3, and MRGPRX4 measured in β-arrestin assays utilizing β-arrestin-CHO cells with recombinant expression of the respective receptor. MRGPRX1 was activated by BAM-22P (8.5 µM),[19] MRGPRX2 was activated by CST-14 (1 µM), MRGPRX3 was activated by PSB-20294 (10 µM), MRGPRX4 was activated by PSB-18061 (2.6 µM).[44] Data represent mean values ± SEM of 3-4 biological replicates, performed in duplicates. […] Data are means ± SEM of 3 biological replicates, in duplicates. Statistical significance was determined by one-way ANOVA (Tukey’s multiple comparison) test (ns P > 0.05). […] Data are means ± SEM of 3 biological replicates, performed in duplicates. e Shift assay to determine inhibition type of PSB-172656 versus CST-14. […] Extrapolated data were not used for analysis but only shown for a comprehensive view. f Schild plot for the effect of PSB-172656 on the concentration-response curves for CST-14. […]
To further investigate PSB-172656 signaling, direct activation of the relevant G protein subunits, Gαq and Gαi1,[32] was studied. This was assessed using G protein dissociation assays and LN229 cells stably overexpressing MRGPRX2 while transiently expressing the investigated G protein (Fig. 3c, d).[47]

CCc1c(C(C)C)[nH]c2nc3cc(F)c(F)cc3n2c1=O [Compound 24, 3-ethyl-7,8-difluoro-2-isopropylbenzo[4,5]imidazo [1,2-a] pyrimidin-4(1H)-one]
effect on SP-induced expression of CD107a and CD63 on the cell surface (MRGPRX2 [1]): completely prevented | effect on MRGPRX2-mediated Ca2+ mobilization in LAD2 cells (MRGPRX2 [2]): decreased Ca^2+ mobilization; also recorded: inhibited | inhibition of CST-14-induced Gαq dissociation (MRGPRX2 [3]): completely inhibited
